Patent US11712466B2, “Vaccine composition” (TOHOKU UNIVERSITY, priority 2017, dated 2023)
“Also recorded” adds a separate entry of the source. Ends that are not written are not given here.

Legend:
[1] = system: antigen peptide (peptide-conjugated BSA); assay: Antibody titer in blood of immunized mice by ELISA against antigen peptide; format: in vivo, mouse
From the text: C57BL/6J male mice aged 8 weeks were purchased from Charles River Laboratories Japan, Inc. After the delivery, the mice were reared in an environment where the room temperature and the light and dark cycles were maintained, and were provided with feed and water ad libitum. As a candidate sequence leading to activation of helper T cells by MHC class II, two peptide sequences: MTGSAADTHR (SEQ ID NO: 4; hereinafter, a peptide composed of the amino acid sequence is referred to as “MTG peptide”) and RRRQASPPRR (SEQ ID NO: 5; hereinafter, a peptide composed of the amino acid sequence is referred to as “RRR peptide”), each of which is not common to VASH1 in the VASH2 sequence were selected (FIG. 1). With respect to these peptides, peptide vaccines using KLH as a carrier were constructed. Note that for the conjugation of each peptide with KLH, a glutaraldehyde method was used. When the amount of the peptide introduced into KLH was measured for each of the obtained peptide vaccines, the amount of MTG was 66 to 70 nmol/mg of the conjugate, and the amount of RRR was 62 to 76 nmol/mg of the conjugate. Subsequently, 5 μg of KLH (control) and 20 μg of each of the KLH-antigen complexes were prepared with physiological saline so that the total amount was 50 μL, respectively, whereby KLH-mixed solutions were obtained. To each of the KLH-mixed solutions (50 μL), an equal amount of complete Freund's adjuvant was added. The obtained mixture was subcutaneously administered to the mice, whereby initial immunization was carried out. After 2 weeks from the administration, booster immunization was carried out by subcutaneously administering a mixture of each of the KLH-mixed solutions (50 μL) and an equal amount of incomplete Freund's adjuvant to the mice. Further, after 2 weeks from the booster immunization (after a total of 4 weeks), an increase in the antibody titer in the blood of each of the immunized mice was verified by ELISA.
The measurement of the antibody titer by ELISA was carried out as follows. After 2 weeks from the booster immunization (after a total of 4 weeks), the blood was collected from the facial vein of each of the immunized mice, and the serum separated from the blood was subjected to ELISA. By using 50 mM carbonate buffer, peptide-conjugated BSA was prepared at 10 μg/mL, and further a recombinant VASH2 protein was prepared at 1 μg/mL, each of which was added at 50 μL/well, and the resultant was left to stand overnight at 4° C. After the solution in each well was removed, 5% skim milk was added at 150 μL/well. […] After 30 minutes, the reaction was stopped by adding 0.5 N H2SO4 at 50 μL/well, and an absorbance (450 nm) was measured using a microplate reader.

KPC mouse = assay: Life-extending effect in KPC mouse, spontaneous pancreatic cancer model; format: in vivo; conditions: KPC mice n=8, 100 μg with Alhydrogel every two weeks; all KLH controls (n=7) died before 300 days
Experimental: To a KPC mouse (aged 8 weeks at the initial immunization) that is a spontaneous pancreatic cancer model, 100 μg of the MTG peptide vaccine was administered together with Alhydrogel (registered trademark) every two weeks, and the survival rate thereof was confirmed (n=8). A KPC mouse to which 100 μg of KLH was administered according to the same schedule was used as a control (n=7) (FIG. 13).

mCD31 = assay: Gene expression in excised tumor tissue by real-time PCR, mCD31; format: in vivo, mouse; conditions: 20 μg vaccine; tumor excised two weeks after implantation
Experimental: (§1) The mouse implanted with the tumor cells in Example 2 was sacrificed two weeks after implantation of the tumor cells, and a tumor was excised from the right axillary subcutaneous region. By using RNeasy Plus Kit (Qiagen, Inc.), extraction of the total RNA from the excised tumor and purification thereof were carried out. By using the obtained total RNA as a template, cDNA was synthesized by reverse transcription reaction. The cDNA was analyzed by performing real-time PCR using a mixed solution of the obtained cDNA and SYBR green (TAKARA BIO, Inc.).

mTwist1 = assay: Gene expression in excised tumor tissue by real-time PCR, mTwist1; format: in vivo, mouse; conditions: tumor excised two weeks after implantation
Experimental: as §1

K5 cells = assay: Tumor growth inhibitory effect, subcutaneous implant model of K5 cells; format: in vivo, mouse
Experimental: 100 μg of KLH (control) or 100 μg of the MTG peptide vaccine was prepared with physiological saline so that the total amount was 100 &L, respectively, whereby KLH-mixed solutions were obtained. To each of the KLH-mixed solutions (100 μL), an equal amount of Alhydrogel (registered trademark) was added. The obtained mixture (200 μL) was intradermally (ID) administered to C57BL/6Jx129SVJ mice aged 8 weeks, whereby initial immunization was carried out (0 day). After 2 weeks from the administration (14 days), booster immunization was carried out. Further, after 2 weeks from the booster immunization (28 days), K5 cells were implanted in each of the mice, whereby a subcutaneous implant model was prepared. In order to confirm that an anti-VASH2 antibody was induced in the mice, the blood was collected at 0 day, 14 day, and 28 day, and the antibody titer was confirmed by ELISA (FIG. 15).

[2] = system: Lewis lung cancer cells (LLC); assay: Subcutaneous implant model, tumor growth inhibitory effect (LLC); format: in vivo, mouse; conditions: immunized C57BL/6J mice, cells implanted s.c. on day 29, measured 14 days after implantation
Experimental: After 2 weeks from the administration of each peptide vaccine and incomplete Freund's adjuvant in Example 1 (on day 29 after the initial peptide vaccine administration), mouse-derived tumor cells were implanted in an immunized mouse, whereby a subcutaneous implant model was prepared. Specifically, mouse lung cancer cells (Lewis lung cancer cells (LLC)) or mouse melanoma cells (B16F1) (all have C57BL/6J as a genetic background) cultured in a RPMI+10% FBS medium were collected by centrifugation, and a cell suspension (1.0×10^8 cells/mL) was prepared with a serum-free medium, and 0.1 mL (1.0×10^7 cells/animal) of the cell suspension was implanted in a right axillary subcutaneous region of a mouse using a 27G injection needle and a syringe, whereby a subcutaneous implant model of tumor cells was prepared.

MTG peptide vaccine: MTG peptide MTGSAADTHR (SEQ ID NO: 4) conjugated with KLH as carrier by a glutaraldehyde method (also: conjugated with KLH by glutaraldehyde)
antibody titer against the antigen peptide ([1]; Example 1: C57BL/6J mice, KLH-antigen complex s.c., Freund's adjuvant, serum 2 weeks after booster (total 4 weeks)): significant concentration-dependent increase | production of an antibody specific to the antigen peptide ([1]; Example 6: C57BL/6J mice, 20 or 100 μg, Alhydrogel, day 28): promotes the production of an antibody | induced antibody binding to the antigen peptide (MTG) ([1]; Example 8: C57BL/6Jx129SVJ mice, 100 μg, Alhydrogel, day 28): induced an antibody that binds to both | mice survived over 300 days after birth (KPC mouse): at least 2 mice | expression of mCD31 (angiogenesis marker) in tumor tissue (mCD31): expression of mCD31 was inhibited; also recorded: a tendency to inhibit the expression | expression of mTwist1 (epithelial-mesenchymal transition marker) in tumor tissue (mTwist1): dose-dependent expression inhibitory effect; also recorded: significantly inhibited depending on the dose | tumor size (tumorigenesis), K5 cells, Experiment 1 (K5 cells; C57BL/6Jx129SVJ mice n=2, 100 μg, 14 to 40 days after implantation): significant inhibition of tumorigenesis | tumor size (tumorigenesis), K5 cells, Experiment 2 (K5 cells; C57BL/6Jx129SVJ mice n=11, 100 μg, day 15 after implantation, vs KLH p=0.0002): tumorigenesis was significantly inhibited | tumor size (tumorigenesis), Lewis lung cancer cells [2]: marked inhibition of tumorigenesis; also recorded: marked inhibition of tumor growth
